The term IC50 denotes the concentration that gives 50% inhibition.

Consider 13 compounds from patent US9181277B2, “Aminoquinazoline derivatives and their salts and methods of use” (SUNSHINE LAKE PHARMA CO., LTD., priority 2011, dated 2015).

This experiment has as its target EGFR Kinase (Homo sapiens, UniProt P00533). In words: EGFR inhibitory activity test (HTRF kinEASE STK S1 kinase assay). Format: biochemical. Conditions: replicate wells, read-out: IC50(nM), Inhibitory Activity of Compounds on EGFR Kinase. How it is done:
In a pilot study, the compounds disclosed herein were screened for their EGFR inhibitory activity. The Cisbio Research Product HTRF kinEASE STK S1 kinase assay/inhibitor screening Kit, can detect the generation of the phosphorylated substrate. Kinase, biotinylated substrate and ATP were first added into buffer solution, and the phosphorylated biotinylated substrates were formed by enzyme reaction. Then, to the above solution was added europium-labeled anti-phospho-site specific antibodies and XL665-labeled avidin. The Specific combinations of antibody with antigen, and biotin with avidin, bring the europium and XL665 closer together and resonance energy transferred. The signals at 620 nm and 665 nm were detected, and the activity of the kinase was evaluated by the ratio of the two signals value.

Sequence of EGFR Kinase (P00533 25-1210): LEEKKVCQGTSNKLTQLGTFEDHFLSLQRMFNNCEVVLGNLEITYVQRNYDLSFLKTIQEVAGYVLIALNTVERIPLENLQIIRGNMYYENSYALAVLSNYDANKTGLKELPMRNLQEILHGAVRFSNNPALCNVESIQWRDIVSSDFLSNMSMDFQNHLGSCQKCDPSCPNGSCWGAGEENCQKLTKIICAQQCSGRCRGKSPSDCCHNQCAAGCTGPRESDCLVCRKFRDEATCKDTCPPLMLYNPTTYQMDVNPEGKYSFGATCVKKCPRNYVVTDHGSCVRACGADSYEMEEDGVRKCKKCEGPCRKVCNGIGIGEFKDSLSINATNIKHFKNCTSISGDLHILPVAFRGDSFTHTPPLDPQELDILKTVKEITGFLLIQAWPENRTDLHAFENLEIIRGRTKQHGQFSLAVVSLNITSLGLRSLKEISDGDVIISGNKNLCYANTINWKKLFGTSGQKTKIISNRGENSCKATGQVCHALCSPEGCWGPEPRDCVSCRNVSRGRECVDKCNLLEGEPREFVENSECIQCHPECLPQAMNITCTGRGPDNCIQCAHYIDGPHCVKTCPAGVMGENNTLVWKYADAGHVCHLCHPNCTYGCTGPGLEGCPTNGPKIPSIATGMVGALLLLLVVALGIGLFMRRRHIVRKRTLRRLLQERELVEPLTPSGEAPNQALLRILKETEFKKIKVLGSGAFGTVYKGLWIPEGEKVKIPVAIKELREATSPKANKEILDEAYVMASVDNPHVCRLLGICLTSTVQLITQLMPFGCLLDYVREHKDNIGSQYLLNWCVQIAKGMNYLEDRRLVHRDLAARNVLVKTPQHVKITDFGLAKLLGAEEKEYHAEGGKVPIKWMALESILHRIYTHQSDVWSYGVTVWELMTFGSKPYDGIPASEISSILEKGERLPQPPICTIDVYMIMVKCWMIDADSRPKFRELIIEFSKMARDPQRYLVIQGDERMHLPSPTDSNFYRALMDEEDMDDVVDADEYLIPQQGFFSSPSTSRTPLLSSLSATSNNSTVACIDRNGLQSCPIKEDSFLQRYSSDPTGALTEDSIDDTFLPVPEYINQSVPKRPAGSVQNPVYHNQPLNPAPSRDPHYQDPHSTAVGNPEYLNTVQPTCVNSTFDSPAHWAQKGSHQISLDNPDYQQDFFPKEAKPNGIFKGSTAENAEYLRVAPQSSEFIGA

Consider `C#Cc1cc(Nc2ncnc3cc(OC)c(OCCCN4CC5CNCC5C4)cc23)ccc1F` (stereo not shown) [Example 44, N-(3-ethynyl-4-fluorophenyl)-6-(3-(hexahydropyrrolo[3,4-c]pyrrol-2(1H)-yl)propoxy)-7-methoxyquinazolin-4-amine], for which the half-maximal inhibitory concentration (IC50) was in the range of 0.101 to 1 nM. The same measure for `COc1cc2ncnc(Nc3ccc(F)c(Cl)c3)c2cc1OCCCN1CCC2CNCC21` (stereo not shown) [Example 13, N-(3-chloro-4-fluorophenyl)-6-(3-(hexahydropyrrolo[3,4-b]pyrrol-1(2H)-yl)propoxy)-7-methoxyquinazolin-4-amine]: 0.001 to 0.1 nM; for `COc1cc2ncnc(Nc3ccc(F)c(Cl)c3)c2cc1OCCCN1CC2CN(C)CC2C1` (stereo not shown) [Example 12, N-(3-chloro-4-fluorophenyl)-7-methoxy-6-(3-(5-methylhexahydropyrrolo[3,4-c]pyrrol-2(1H)-yl)propoxy)quinazolin-4-amine]: 0.101 to 1 nM. The same measure for `COc1cc2ncnc(Nc3ccc(F)cc3)c2cc1OCCCN1CC2OCCOC2C1` (stereo not shown) [Example 7, N-(4-fluorophenyl)-7-methoxy-6-(3-(tetrahydro-2H-[1,4]dioxino[2,3-c]pyrrol-6(3H)-yl)propoxy) quinazolin-4-amine]: 1 to 10 nM.

For the compound `COc1cc2ncnc(Nc3ccc(F)c(Cl)c3)c2cc1OCCCN1CC2CCOCC2C1` (stereo not shown) [Example 23, N-(3-chloro-4-fluorophenyl)-6-(3-(hexahydropyrano[3,4-c]pyrrol-2(3H)-yl)propoxy)-7-methoxyquinazolin-4-amine], the concentration for half-maximal inhibition (IC50) lay in the range of 1 to 10 nM.

With `COc1cc2ncnc(Nc3ccc(F)c(Cl)c3)c2cc1OCCCN1CC2CNCC2C1` (stereo not shown) [Example 11, N-(3-chloro-4-fluorophenyl)-6-(3-(hexahydropyrrolo[3,4-c]pyrrol-2(1H)-yl)propoxy)-7-methoxyquinazolin-4-amine], the IC50 is 0.001 to 0.1 nM. The same measure for `COc1cc2ncnc(Nc3ccc(F)c(Cl)c3)c2cc1OCCCN1CC2CCCNC2C1` (stereo not shown) [Example 25, N-(3-chloro-4-fluorophenyl)-6-(3-(hexahydro-1H-pyrrolo[3,4-b]pyridin-6(2H)-yl)propoxy)-7-methoxyquinazolin-4-amine]: 0.001 to 0.1 nM; for `COc1cc2ncnc(Nc3ccc(F)c(Cl)c3)c2cc1OCCCN1CCC2CCCCC2C1` (stereo not shown) [Example 35, N-(3-chloro-4-fluorophenyl)-7-methoxy-6-(3-(octahydroisoquinolin-2(1H)-yl)propoxy)quinazolin-4-amine]: 0.001 to 0.1 nM; for `COc1cc2ncnc(Nc3ccc(F)c(Cl)c3)c2cc1OCCCN1C[C@@H]2OCCO[C@H]2C1` [Example 40, N-(3-chloro-4-fluorophenyl)-7-methoxy-6-(3-((4aS,7aS)-tetrahydro-2H-[1,4]dioxino[2,3-c]pyrrol-6(3H)-yl)propoxy)quinazolin-4-amine]: 0.001 to 0.1 nM.

`COc1cc2ncnc(Nc3ccc(Br)cc3F)c2cc1OCCCN1CC2OCCOC2C1` (stereo not shown) [Example 10, N-(4-bromo-2-fluorophenyl)-7-methoxy-6-(3-(tetrahydro-2H-[1,4]dioxino[2,3-c]pyrrol-6(3H)-yl)propoxy)quinazolin-4-amine]: the IC50 is over 10 nM. Under `COc1cc2ncnc(Nc3ccc(F)c(Cl)c3)c2cc1OCCCN1CC2CCCC2C1` (stereo not shown) [Example 21, N-(3-chloro-4-fluorophenyl)-6-(3-(hexahydrocyclopenta[c]pyrrol-2(1H)-yl)propoxy)-7-methoxyquinazolin-4-amine] stands 0.001 to 0.1 nM; under `COc1cc2ncnc(Nc3ccc(F)c(Cl)c3)c2cc1OCCCN1CC2OCCOC2C1` (stereo not shown) [Example 6, N-(3-chloro-4-fluorophenyl)-7-methoxy-6-(3-(tetrahydro-2H-[1,4]dioxino[2,3-c]pyrrol-6(3H)-yl)propoxy)quinazolin-4-amine], 0.001 to 0.1 nM; under `COc1cc2ncnc(Nc3ccc(F)c(Cl)c3)c2cc1OCCCN1CC2COCC2C1` (stereo not shown) [Example 22, N-(3-chloro-4-fluorophenyl)-7-methoxy-6-(3-(tetrahydro-1H-furo[3,4-c]pyrrol-5(3H)-yl)propoxy) quinazolin-4-amine], 0.001 to 0.1 nM.
